In patent US20220340597A1, “HEXAHYDRO-1H-PYRAZINO[1,2-A]PYRAZINE COMPOUNDS FOR THE TREATMENT OF AUTOIMMUNE DISEASE” (Hoffmann-La Roche Inc., priority 2019, published 2022):

How the values were obtained:
[1] = molecular target: T1, human TLR9 (Homo sapiens, UniProt Q9NR96); experiment: HEK293-Blue-hTLR-9 cells assay; format: cell-based; settings: HEK293-Blue-hTLR9 cells, ODN2006 stimulation, 20 hrs, SEAP reporter; read-out: HEK/hTLR9 IC50
T1 construct: host or cells: HEK293 (HEK-Blue hTLR9)
T1 sequence (Q9NR96 26-1032): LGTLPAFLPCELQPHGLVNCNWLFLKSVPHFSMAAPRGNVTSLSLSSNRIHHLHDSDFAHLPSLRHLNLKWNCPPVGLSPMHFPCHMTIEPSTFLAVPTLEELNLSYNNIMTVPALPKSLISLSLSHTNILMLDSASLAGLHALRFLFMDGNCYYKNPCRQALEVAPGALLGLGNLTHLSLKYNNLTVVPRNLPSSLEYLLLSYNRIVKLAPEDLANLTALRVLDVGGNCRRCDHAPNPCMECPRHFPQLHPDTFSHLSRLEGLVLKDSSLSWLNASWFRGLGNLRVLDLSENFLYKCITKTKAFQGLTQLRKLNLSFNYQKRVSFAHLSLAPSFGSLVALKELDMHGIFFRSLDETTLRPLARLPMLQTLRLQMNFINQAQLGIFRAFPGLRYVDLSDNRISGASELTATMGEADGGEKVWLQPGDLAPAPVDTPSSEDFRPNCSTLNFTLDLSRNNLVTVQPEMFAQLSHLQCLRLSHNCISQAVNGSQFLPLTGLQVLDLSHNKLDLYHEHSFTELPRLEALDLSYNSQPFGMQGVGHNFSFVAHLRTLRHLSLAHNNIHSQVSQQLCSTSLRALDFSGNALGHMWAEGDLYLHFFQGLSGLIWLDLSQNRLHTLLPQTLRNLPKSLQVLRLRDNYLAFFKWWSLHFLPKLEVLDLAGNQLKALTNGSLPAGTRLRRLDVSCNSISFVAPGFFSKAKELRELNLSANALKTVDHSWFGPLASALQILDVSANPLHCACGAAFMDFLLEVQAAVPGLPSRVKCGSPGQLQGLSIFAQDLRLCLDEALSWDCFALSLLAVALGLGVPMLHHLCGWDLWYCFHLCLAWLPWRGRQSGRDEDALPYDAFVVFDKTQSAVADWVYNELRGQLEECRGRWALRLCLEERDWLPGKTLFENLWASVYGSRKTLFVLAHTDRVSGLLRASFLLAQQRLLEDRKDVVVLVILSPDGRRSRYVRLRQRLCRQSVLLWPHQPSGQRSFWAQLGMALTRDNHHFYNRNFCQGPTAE

[2] = molecular target: T2, human TLR8 (Homo sapiens, UniProt Q9NR97); experiment: HEK293-Blue-hTLR-8 cells assay
T2 sequence (Q9NR97 27-1041): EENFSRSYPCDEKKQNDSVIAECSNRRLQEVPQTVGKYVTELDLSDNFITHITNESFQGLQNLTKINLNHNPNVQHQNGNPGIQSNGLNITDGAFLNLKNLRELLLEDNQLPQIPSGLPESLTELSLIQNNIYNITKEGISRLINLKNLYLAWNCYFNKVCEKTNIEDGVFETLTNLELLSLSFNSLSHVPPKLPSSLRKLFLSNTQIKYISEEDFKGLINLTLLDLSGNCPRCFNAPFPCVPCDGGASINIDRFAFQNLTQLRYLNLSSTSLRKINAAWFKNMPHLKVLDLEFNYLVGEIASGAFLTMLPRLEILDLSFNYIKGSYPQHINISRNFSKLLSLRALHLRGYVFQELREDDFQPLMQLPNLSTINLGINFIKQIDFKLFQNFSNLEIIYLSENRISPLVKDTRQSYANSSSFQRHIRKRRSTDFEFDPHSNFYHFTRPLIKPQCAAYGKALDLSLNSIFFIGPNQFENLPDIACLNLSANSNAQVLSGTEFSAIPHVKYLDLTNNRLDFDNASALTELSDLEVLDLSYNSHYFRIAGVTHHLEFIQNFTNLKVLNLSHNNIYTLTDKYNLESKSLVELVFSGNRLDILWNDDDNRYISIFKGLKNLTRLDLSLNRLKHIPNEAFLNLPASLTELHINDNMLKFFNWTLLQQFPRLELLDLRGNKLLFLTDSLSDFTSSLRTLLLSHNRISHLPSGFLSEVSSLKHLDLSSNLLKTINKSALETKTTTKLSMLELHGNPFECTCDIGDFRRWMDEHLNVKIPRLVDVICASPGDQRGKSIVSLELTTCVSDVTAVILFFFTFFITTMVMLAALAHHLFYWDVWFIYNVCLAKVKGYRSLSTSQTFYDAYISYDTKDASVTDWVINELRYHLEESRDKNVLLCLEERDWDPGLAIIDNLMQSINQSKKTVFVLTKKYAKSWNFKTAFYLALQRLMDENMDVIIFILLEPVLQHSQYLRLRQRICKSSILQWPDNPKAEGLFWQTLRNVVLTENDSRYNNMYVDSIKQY

Compound	IC50 [1] [nM]	IC50 [2] [nM]
[2H]c1ccc2c(N3C[C@@H]4CN(c5ccc(CCN6C[C@H](OC)[C@@H](N)C6)cn5)CCN4[C@@H](C)C3)ccc(C#N)c2n1 [Example 122, 5-[(4S,9aR)-8-[5-[2-[(3S,4S)-3-amino-4-methoxy-pyrrolidin-1-yl]ethyl]-2-pyridyl]-4-methyl-3,4,6,7,9,9a-hexahydro-1H-pyrazino[1,2-a]pyrazin-2-yl]-2-deuterio-quinoline-8-carbonitrile]	51	3
Cc1cc(N2CCOC[C@H](N)C2)ncc1N1CCN2CCN(c3ccc(C#N)c4ncccc34)CC2C1 (stereo partly drawn) [Example 46, 5-[2-[6-[(6R)-6-amino-1,4-oxazepan-4-yl]-4-methyl-3-pyridyl]-3,4,6,7,9,9a-hexahydro-1H-pyrazino[1,2-a]pyrazin-8-yl]quinoline-8-carbonitrile]	78	13
C[C@@H]1CN(c2ccc(C#N)c3ncccc23)C[C@@H]2CN(CCc3ccc(N4C[C@@H](N)[C@@H](F)C4)cn3)CCN21 [Example 19, 5-[(4R,9aS)-8-[2-[5-[(3R,4S)-3-amino-4-fluoro-pyrrolidin-1-yl]-2-pyridyl]ethyl]-4-methyl-3,4,6,7,9,9a-hexahydro-1H-pyrazino[1,2-a]pyrazin-2-yl]quinoline-8-carbonitrile]	48	31
Cc1cc(N2CCNCC2)ncc1N1CCN2CCN(c3ccc(C#N)c4ncccc34)CC2C1 (centres unmarked) [Example 38, 5-[2-(4-methyl-6-piperazin-1-yl-3-pyridyl)-3,4,6,7,9,9a-hexahydro-1H-pyrazino[1,2-a]pyrazin-8-yl]quinoline-8-carbonitrile]	93	8
CO[C@@H]1CN(c2nccc(N3CCN4[C@@H](C3)CN(c3ccc(C#N)c5ncccc35)C[C@H]4C)n2)C[C@H]1N [Example 36, 5-[(4R,9aR)-8-[2-[(3R,4R)-3-amino-4-methoxy-pyrrolidin-1-yl]pyrimidin-4-yl]-4-methyl-3,4,6,7,9,9a-hexahydro-1H-pyrazino[1,2-a]pyrazin-2-yl]quinoline-8-carbonitrile]	68	15
C[C@@H]1CN(c2ccc(C#N)c3ncccc23)C[C@@H]2CN(c3ccnc(N4CCOC[C@H](N)C4)c3)CCN21 [Example 54, 5-[(4R,9aS)-8-[2-[(6R)-6-amino-1,4-oxazepan-4-yl]-4-pyridyl]-4-methyl-3,4,6,7,9,9a-hexahydro-1H-pyrazino[1,2-a]pyrazin-2-yl]quinoline-8-carbonitrile]	43	26
[2H]c1ccc2c(N3C[C@@H]4CN(c5ncc(C(=O)N6CC7(CN(C)C7)C6)cc5C)CCN4[C@@H](C)C3)ccc(C#N)c2n1 [Example 103, 5-[(4S,9aR)-4-methyl-8-[3-methyl-5-(6-methyl-2,6-diazaspiro[3.3]heptane-2-carbonyl)-2-pyridyl]-3,4,6,7,9,9a-hexahydro-1H-pyrazino[1,2-a]pyrazin-2-yl]-2-deuterio-quinoline-8-carbonitrile]	87	4
C[C@@H]1CN(c2ccc(C#N)c3ncccc23)C[C@@H]2CN(CCc3ccc(N4C[C@H]5NCCO[C@@H]5C4)nc3)CCN21 [Example 124, 5-[(4R,9aS)-8-[2-[6-[(4aR,7aR)-3,4,4a,5,7,7a-hexahydro-2H-pyrrolo[3,4-b][1,4]oxazin-6-yl]-3-pyridyl]ethyl]-4-methyl-3,4,6,7,9,9a-hexahydro-1H-pyrazino[1,2-a]pyrazin-2-yl]quinoline-8-carbonitrile]	55	51
Cc1cc(N2CCN3[C@@H](C2)CN(c2ccc(C#N)c4ncccc24)C[C@H]3C)nc(N2CCNCC2)n1 [Example 31, 5-[(4R,9aR)-4-methyl-8-(6-methyl-2-piperazin-1-yl-pyrimidin-4-yl)-3,4,6,7,9,9a-hexahydro-1H-pyrazino[1,2-a]pyrazin-2-yl]quinoline-8-carbonitrile]	85	24
C[C@@H]1CN(c2ccc(C#N)c3ncccc23)C[C@@H]2CN(CCc3cccc(N4CCN[C@@H](C)C4)n3)CCN21 [Example 21, 5-[(4R,9aS)-4-methyl-8-[2-[6-[(3S)-3-methylpiperazin-1-yl]-2-pyridyl]ethyl]-3,4,6,7,9,9a-hexahydro-1H-pyrazino[1,2-a]pyrazin-2-yl]quinoline-8-carbonitrile]	56	53
C[C@@H]1CN(c2ccc(C#N)c3ncccc23)C[C@@H]2CN(Cc3ccc4c(c3)CCNC4)CCN21 [Example 10, 5-[(4R,9aS)-4-methyl-8-(1,2,3,4-tetrahydroisoquinolin-6-ylmethyl)-3,4,6,7,9,9a-hexahydro-1H-pyrazino[1,2-a]pyrazin-2-yl]quinoline-8-carbonitrile]	43	12
[2H]c1ccc2c(N3C[C@@H]4CN(c5ncc(N6C[C@H]7NCCO[C@@H]7C6)cc5C)CCN4[C@@H](C)C3)ccc(C#N)c2n1 [Example 114, 5-[(4S,9aR)-8-[5-[(4aR,7aR)-3,4,4a,5,7,7a-hexahydro-2H-pyrrolo[3,4-b][1,4]oxazin-6-yl]-3-methyl-2-pyridyl]-4-methyl-3,4,6,7,9,9a-hexahydro-1H-pyrazino[1,2-a]pyrazin-2-yl]-2-deuterio-quinoline-8-carbonitrile]	110	10
Cc1cc(N2CCN3[C@@H](C2)CN(c2ccc(C#N)c4ncccc24)C[C@H]3C)nc(N2CC(C)(N)C2)n1 [Example 55, 5-[(4R,9aR)-8-[2-(3-amino-3-methyl-azetidin-1-yl)-6-methyl-pyrimidin-4-yl]-4-methyl-3,4,6,7,9,9a-hexahydro-1H-pyrazino[1,2-a]pyrazin-2-yl]quinoline-8-carbonitrile]	48	40
[2H]c1ccc2c(N3C[C@@H]4CN(c5ccc6c(n5)CCNC6)CCN4[C@@H](C)C3)ccc(C#N)c2n1 [Example 121, 5-[(4S,9aR)-4-methyl-8-(5,6,7,8-tetrahydro-1,6-naphthyridin-2-yl)-3,4,6,7,9,9a-hexahydro-1H-pyrazino[1,2-a]pyrazin-2-yl]-2-deuterio-quinoline-8-carbonitrile]	85	1
C[C@@H]1CN(c2ccc(C#N)c3ncccc23)C[C@@H]2CN(c3cccc4c3CNC4)CCN21 [Example 9, 5-[(4R,9aS)-8-isoindolin-4-yl-4-methyl-3,4,6,7,9,9a-hexahydro-1H-pyrazino[1,2-a]pyrazin-2-yl]quinoline-8-carbonitrile]	79	1
C[C@@H]1CN(c2ccc(C#N)c3ncccc23)C[C@@H]2CN(CCc3ccc(N4CC5(CNCCO5)C4)cc3)CCN21 [Example 28, 5-[(4R,9aS)-4-methyl-8-[2-[4-(5-oxa-2,8-diazaspiro[3.5]nonan-2-yl)phenyl]ethyl]-3,4,6,7,9,9a-hexahydro-1H-pyrazino[1,2-a]pyrazin-2-yl]quinoline-8-carbonitrile]	98	29
